Activity calls are given as the source filed them.
Key:
[1] = system: Vero; assay: Vero cell cytotoxicity, cytotoxicity control for flavivirus capping enzyme inhibitors (AID 588742); type: functional; details: Chlorocebus sabaeus
[2] = target: Genome polyprotein (dengue virus type 2, UniProt P29990); assay: Dengue-2 NS5 methyltransferase inhibitors, primary screen, biochemical, confirmation dose response (AID 588689); type: functional
[3] = HIV-1 Env-mediated cell fusion inhibitors, dose response, CCR5-tropic Env (AID 2279); type: functional
[4] = target: T1, Bcl-2-like protein 10 (Homo sapiens, UniProt Q9HD36); assay: Biochemical TR3 FP assay of Bcl-B inhibitor potency, EC50 (AID 1243); type: functional
T1 sequence (Q9HD36 whole entry): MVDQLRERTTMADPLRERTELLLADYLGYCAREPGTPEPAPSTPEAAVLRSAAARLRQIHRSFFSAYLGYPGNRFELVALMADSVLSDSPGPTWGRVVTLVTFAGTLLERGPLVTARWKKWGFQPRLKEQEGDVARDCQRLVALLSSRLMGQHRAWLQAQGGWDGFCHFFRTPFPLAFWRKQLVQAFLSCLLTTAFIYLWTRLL

[5] = CEM21 lymphoblast cell cytotoxicity, dose response, cytotoxicity control for viral fusion inhibitor project, CellTiter-Glo luminescence, cherry-picked (AID 652042); type: functional, cell-based;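 note: potency for signal decrease meaning cytotoxicity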
[6] = target: Neuropeptide Y receptor type 2 (Homo sapiens, UniProt P49146); type: functional, cell-based;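 note: HEK293 cells expressing the receptor and a CNG channel; stimulus was NPY near EC95 followed by isoproterenol to raise cAMP; antagonist potency measured as restoring cAMP signal that NPY suppresses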
[7] = target: Neuropeptide Y receptor type 1 (Homo sapiens, UniProt P25929); type: functional;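 note: HEK293 cells with a CNG channel challenged with NPY then isoproterenol; potency as antagonist that reverses NPY suppression of cAMP signal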
[8] = inhibitors of HIV Env-driven cell fusion, dose response, cherry-pick (AID 652057); type: functional, cell-based
[9] = CEM21 cell cytotoxicity, dose response, cytotoxicity control, plate reader, dry powder (AID 687026); type: functional, cell-based
[10] = off-target signal loss in HeLa-CEM21 co-culture – HeLa F-luc CTL cells, cherry-picked, counter-screen for HIV-1 Env fusion inhibitor project, dose response (AID 652040); type: functional, cell-based;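 note: potency for signal decrease marking cytotoxic or nonspecific inhibition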
[11] = LGR2 antagonists, dose response, cell-based, HEK293, CRE-luciferase reporter, cherry pick, set 2 (AID 743343); type: functional;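 note: transfected cells were stimulated with diluted bursicon conditioned medium after compound addition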
[12] = MC4R antagonists, dose response, counter-screen for LGR2 antagonist project, cell-based, plate reader, cherry pick (AID 743444); type: functional;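 note: transfected HEK 293 cells stimulated with alpha-MSH peptide; potency of inhibitors of the alpha-MSH evoked signal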
[13] = system: H4; assay: Luminescence Cell-Based Dose Response HTS to Identify Activators of 5'UTR Stem-Loop Driven Prion Protein mRNA Translation in H4 Neuroglioblastoma Cells. [Related pubchem assays: 1829 (Project Summary), 1814 (Primary HTS)]; type: functional; details: Homo sapiens
[14] = Luminescence Cell-Based Dose Confirmation HTS to Identify Activators of 5'UTR Stem-Loop Driven Alpha-Synuclein mRNA Translation in H4 Neuroglioblastoma Cells. [Related pubchem assays: 1829 (Project Summary), 1814 (Primary HTS)]; type: functional
[15] = cytotoxicity in HEK-293T cells, dose response, cytotoxicity control for TCR NF-kB inhibitor project, luminescence, T-cell screen hits (AID 489026); type: functional, cell-based;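 note: cells exposed to compound about 14 hours before the viability readout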
[16] = HepG2 cell cytotoxicity, dose response, cytotoxicity control, plate reader, cherry-pick, antagonist series (AID 743416); type: functional, cell-based
[17] = target: Sphingosine 1-phosphate receptor 3 (Homo sapiens, UniProt Q99500); assay: Dose response cell-based high throughput screening assay for antagonists of the Sphingosine 1-Phosphate Receptor 3 (S1P3). [Related pubchem assays: 1429, 485 ]; type: functional
[18] = target: 5-hydroxytryptamine receptor 1E (Homo sapiens, UniProt P28566); assay: Counterscreen assay for S1P3 antagonists: Dose response cell-based high throughput screening assay to identify antagonists of the 5-Hydroxytryptamine Receptor Subtype 1E (5HT1E). [Related pubchem assays: 1429, 485 ]; type: functional
Chain of 5-hydroxytryptamine receptor 1E (P28566 whole entry): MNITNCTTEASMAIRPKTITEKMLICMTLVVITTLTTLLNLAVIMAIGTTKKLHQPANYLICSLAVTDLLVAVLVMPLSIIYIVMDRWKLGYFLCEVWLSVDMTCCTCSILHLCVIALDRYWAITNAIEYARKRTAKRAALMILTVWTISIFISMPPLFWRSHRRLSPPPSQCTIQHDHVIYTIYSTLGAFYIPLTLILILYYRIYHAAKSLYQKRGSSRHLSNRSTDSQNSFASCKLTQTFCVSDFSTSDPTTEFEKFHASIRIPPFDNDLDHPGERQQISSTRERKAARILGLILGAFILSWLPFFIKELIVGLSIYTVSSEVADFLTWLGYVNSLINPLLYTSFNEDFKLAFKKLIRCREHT

[19] = system: INS1; assay: beta cell apoptosis inhibitors, cytokine rescue, dose response, luminescence, retest (AID 449756); type: functional, cell-based; details: Rattus norvegicus;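 note: cell death triggered by IL-1 beta plus TNF-alpha plus IFN-gamma mixture; protective hits raise ATP signal compared with cytokine alone wells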
[20] = Luminescence Cell-Based Dose Response HTS to Identify Activators of Luciferase Translation or Activity in H4 […] Cells. [Related pubchem assays: 1829 (Project Summary), 1814 (Primary HTS)]; type: functional
[21] = target: Neurotensin receptor type 1 (Homo sapiens, UniProt P30989); type: functional;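 note: Image-based confirmatory dose-response assay measuring agonist activity at NTR1; NTR1-expressing U2OS osteosarcoma cells imaged for beta-arrestin GFP spot formation; agonist potency where compounds increase beta-arrestin recruitment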
Chain of Neurotensin receptor type 1 (P30989 whole entry): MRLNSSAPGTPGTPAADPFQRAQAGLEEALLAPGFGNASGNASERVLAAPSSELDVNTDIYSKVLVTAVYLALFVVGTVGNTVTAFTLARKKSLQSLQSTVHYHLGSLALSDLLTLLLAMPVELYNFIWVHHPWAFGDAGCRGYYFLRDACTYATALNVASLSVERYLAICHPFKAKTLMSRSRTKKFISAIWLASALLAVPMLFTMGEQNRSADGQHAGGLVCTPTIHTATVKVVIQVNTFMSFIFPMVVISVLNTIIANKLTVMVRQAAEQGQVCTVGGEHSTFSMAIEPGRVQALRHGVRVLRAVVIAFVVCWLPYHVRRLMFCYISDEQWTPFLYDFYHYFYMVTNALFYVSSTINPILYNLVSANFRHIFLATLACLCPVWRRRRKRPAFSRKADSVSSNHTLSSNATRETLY

[22] = system: HT-1080; assay: cytotoxicity in HT1080 fibrosarcoma cells, cell-based, fluorescence readout (AID 620); type: functional; details: Homo sapiens
[23] = target: T2, Luciferin 4-monooxygenase (Photinus pyralis, UniProt P08659); assay: Counter Screen for Luciferase-based Assay Positives. [Related pubchem assays: 620, 618, 411 ]
T2 sequence (P08659 whole entry): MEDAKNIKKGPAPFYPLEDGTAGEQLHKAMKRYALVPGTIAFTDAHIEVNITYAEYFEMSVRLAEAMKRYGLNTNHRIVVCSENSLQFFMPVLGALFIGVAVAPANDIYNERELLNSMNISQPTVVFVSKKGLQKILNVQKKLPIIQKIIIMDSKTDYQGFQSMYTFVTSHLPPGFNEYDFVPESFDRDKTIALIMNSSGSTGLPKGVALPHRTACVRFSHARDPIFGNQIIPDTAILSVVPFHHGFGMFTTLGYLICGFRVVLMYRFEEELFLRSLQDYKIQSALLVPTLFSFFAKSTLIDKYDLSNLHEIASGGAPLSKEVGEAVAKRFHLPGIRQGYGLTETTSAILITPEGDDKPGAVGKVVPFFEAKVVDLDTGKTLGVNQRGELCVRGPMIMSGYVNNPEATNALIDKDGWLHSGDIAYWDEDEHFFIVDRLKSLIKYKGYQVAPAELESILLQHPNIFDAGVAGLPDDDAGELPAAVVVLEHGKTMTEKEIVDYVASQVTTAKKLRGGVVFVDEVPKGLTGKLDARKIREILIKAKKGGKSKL

[24] = Luminescence Cell-Based Dose Confirmation HTS to Identify Inhibitors of Platelet Dense Granule Release. [Related pubchem assays: 1663 (Primary HTS), 1678 (Summary of Project)]; type: functional
[25] = target: T2, Luciferin 4-monooxygenase; assay: firefly luciferase enzyme inhibitors, dose response, biochemical, luminescence (AID 1891)
[26] = Luminescence Cell-Based Dose Response HTS to Identify Inhibitors of 5'UTR Stem-Loop Driven Prion Protein mRNA Translation in H4 Neuroglioblastoma Cells. [Related pubchem assays: 1827 (Project Summary), 1813 (Primary HTS)]; type: functional
[27] = Luminescence-based counterscreen assay for KLF5 inhibitors: dose response cell-based high throughput screening assay to identify cytotoxic compounds using the IEC-6 intestinal epithelial cell line. [Related pubchem assays: 1700 (Primary screen.), 1834 (Confirmation screen.), 1858 (Summary AID.), 1905 (Counterscreen.)]; type: functional
[28] = inhibitors of SNCA 5'UTR-driven reporter translation, confirmation, H4 neuroglioma cells, luminescence (AID 1988); type: functional, cell-based
[29] = target: T3, Zinc finger protein mex-5 (Caenorhabditis elegans, UniProt Q9XUB2); assay: MEX-5/TCR-2 RNA interaction inhibitors, dose response, biochemical, C. elegans, fluorescence polarization (AID 1960)
T3 sequence (Q9XUB2 whole entry): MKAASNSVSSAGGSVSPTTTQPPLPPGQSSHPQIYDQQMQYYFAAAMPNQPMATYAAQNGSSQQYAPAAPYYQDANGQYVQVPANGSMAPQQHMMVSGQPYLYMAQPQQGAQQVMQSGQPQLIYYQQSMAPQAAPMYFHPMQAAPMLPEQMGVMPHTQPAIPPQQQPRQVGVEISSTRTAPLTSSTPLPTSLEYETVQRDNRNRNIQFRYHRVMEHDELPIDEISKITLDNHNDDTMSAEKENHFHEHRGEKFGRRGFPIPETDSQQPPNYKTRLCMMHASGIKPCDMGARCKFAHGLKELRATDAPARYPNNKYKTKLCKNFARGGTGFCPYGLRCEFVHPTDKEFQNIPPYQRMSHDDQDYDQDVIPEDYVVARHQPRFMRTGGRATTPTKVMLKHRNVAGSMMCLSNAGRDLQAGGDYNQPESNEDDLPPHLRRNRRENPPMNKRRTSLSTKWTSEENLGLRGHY

[30] = target: T4, Voltage-gated N-type calcium channel alpha-1B subunit/Amyloid beta A4 precursor protein-binding family A member 1 (Homo sapiens, UniProt Q00975+Q02410); type: protein assay
T4 sequence (Q00975 whole entry): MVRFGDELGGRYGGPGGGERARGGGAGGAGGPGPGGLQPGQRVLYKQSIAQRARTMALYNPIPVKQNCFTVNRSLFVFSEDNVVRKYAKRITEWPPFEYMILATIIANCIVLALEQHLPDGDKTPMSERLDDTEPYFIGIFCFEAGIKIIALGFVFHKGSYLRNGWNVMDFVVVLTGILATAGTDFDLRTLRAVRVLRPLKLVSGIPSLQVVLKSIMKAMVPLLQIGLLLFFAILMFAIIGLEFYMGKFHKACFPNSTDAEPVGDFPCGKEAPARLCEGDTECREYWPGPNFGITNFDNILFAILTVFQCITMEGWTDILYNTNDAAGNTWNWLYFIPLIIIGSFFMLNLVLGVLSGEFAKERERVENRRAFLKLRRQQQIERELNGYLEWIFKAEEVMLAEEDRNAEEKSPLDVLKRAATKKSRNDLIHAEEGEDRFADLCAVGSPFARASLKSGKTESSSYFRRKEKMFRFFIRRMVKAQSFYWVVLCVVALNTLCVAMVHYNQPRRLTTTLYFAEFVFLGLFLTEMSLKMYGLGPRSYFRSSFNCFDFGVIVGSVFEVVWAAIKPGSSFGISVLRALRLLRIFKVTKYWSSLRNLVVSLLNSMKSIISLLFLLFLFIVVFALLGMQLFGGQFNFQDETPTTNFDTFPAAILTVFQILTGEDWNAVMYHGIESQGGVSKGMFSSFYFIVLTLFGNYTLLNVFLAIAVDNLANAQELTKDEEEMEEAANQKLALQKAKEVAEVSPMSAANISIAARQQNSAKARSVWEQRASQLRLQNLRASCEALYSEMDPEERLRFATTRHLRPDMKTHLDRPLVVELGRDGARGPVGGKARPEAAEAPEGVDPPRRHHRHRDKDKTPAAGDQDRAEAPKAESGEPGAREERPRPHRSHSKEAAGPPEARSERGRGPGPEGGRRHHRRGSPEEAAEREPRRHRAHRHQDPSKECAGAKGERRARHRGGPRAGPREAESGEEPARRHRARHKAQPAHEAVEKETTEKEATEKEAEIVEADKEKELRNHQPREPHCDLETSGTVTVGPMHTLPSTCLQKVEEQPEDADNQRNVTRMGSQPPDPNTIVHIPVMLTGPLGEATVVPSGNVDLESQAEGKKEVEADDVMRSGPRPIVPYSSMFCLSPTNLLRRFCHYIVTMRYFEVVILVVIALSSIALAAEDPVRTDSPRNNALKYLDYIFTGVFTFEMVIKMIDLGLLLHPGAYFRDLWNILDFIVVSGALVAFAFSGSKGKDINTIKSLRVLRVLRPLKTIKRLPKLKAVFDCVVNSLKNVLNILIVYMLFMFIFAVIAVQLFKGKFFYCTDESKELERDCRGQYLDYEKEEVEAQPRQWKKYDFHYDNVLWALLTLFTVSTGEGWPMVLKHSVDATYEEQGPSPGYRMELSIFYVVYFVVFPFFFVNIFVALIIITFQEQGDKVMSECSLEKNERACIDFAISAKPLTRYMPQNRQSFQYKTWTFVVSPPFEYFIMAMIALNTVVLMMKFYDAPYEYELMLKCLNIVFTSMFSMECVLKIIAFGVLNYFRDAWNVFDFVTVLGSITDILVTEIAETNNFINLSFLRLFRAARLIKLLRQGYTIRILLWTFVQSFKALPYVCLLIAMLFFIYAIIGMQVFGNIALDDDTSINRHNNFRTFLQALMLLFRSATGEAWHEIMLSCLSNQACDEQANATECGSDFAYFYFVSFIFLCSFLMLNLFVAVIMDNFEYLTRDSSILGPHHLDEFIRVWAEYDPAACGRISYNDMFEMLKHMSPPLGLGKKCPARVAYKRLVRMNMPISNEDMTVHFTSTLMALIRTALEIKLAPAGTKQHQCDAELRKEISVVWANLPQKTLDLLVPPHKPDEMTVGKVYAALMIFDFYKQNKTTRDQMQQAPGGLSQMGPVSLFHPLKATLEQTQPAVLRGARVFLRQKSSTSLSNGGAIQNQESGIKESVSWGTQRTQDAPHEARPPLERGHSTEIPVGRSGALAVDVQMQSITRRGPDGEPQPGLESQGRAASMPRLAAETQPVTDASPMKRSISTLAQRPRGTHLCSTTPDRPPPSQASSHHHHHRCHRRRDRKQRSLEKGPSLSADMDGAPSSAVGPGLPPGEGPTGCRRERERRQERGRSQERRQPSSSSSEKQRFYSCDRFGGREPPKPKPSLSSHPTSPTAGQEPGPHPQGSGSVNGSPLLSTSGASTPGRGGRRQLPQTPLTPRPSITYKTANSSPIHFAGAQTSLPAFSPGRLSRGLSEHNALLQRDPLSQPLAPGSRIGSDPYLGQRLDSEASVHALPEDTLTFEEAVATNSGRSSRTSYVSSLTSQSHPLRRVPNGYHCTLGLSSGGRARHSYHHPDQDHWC
T4 sequence (Q02410 whole entry): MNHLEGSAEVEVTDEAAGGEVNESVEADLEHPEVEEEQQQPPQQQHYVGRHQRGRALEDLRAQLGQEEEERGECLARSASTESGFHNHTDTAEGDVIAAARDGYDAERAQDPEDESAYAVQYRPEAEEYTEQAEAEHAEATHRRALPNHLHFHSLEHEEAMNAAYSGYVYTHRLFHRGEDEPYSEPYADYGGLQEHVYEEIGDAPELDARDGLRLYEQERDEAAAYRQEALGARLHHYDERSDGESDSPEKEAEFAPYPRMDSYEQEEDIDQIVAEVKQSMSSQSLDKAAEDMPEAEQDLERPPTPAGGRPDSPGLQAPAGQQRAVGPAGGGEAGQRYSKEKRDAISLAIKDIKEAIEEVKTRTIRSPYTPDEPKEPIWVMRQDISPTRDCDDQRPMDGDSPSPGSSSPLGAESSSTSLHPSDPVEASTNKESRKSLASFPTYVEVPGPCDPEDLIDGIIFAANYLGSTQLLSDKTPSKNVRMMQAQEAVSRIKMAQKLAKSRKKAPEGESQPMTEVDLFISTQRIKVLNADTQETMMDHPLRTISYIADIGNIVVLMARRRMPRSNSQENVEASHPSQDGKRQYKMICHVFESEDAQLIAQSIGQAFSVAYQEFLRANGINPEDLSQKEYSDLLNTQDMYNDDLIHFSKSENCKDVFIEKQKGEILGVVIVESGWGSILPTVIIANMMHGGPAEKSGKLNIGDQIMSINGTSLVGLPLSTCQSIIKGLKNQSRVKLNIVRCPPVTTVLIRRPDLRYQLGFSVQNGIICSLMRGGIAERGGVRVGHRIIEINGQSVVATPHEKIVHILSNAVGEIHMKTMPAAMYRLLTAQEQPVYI

[31] = target: T4, Voltage-gated N-type calcium channel alpha-1B subunit/Amyloid beta A4 precursor protein-binding family A member 1; type: protein assay; remark: listed apart in the source
[32] = target: DNA (cytosine-5)-methyltransferase 1 (Homo sapiens, UniProt P26358); assay: DNMT1 methyltransferase inhibitors, confirmation, biochemical, fluorescent molecular beacon (AID 602386); type: functional
[33] = target: T5, Hexokinase HKDC1 (Homo sapiens, UniProt Q2TB90); assay: HKDC1 hexokinase inhibitors, dose response, biochemical, W721R variant (AID 504729); type: functional
T5 sequence (Q2TB90 whole entry): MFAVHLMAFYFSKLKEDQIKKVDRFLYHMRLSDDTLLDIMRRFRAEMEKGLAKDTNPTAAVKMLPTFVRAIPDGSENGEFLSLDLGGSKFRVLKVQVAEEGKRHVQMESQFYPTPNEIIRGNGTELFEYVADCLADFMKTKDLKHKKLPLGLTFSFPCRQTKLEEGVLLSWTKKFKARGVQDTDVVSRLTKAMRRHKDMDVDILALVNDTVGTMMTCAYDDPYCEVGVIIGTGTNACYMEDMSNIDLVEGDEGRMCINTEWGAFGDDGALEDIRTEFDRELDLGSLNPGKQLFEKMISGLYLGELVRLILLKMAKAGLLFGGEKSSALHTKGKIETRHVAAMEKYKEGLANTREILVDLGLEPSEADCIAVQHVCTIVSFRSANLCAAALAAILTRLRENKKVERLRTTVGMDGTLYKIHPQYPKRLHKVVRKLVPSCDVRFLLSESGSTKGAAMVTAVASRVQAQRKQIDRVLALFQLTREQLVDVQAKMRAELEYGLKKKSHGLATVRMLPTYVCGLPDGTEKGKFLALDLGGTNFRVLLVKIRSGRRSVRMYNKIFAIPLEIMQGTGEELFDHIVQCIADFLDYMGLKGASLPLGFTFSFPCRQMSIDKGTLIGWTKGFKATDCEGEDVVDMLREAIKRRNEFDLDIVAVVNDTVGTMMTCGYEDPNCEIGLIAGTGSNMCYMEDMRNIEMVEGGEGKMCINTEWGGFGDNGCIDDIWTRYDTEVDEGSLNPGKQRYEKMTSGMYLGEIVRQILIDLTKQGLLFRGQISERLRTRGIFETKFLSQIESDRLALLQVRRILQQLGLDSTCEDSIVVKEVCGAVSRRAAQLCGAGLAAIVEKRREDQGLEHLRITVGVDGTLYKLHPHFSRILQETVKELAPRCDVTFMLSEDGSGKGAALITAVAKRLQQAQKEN

[34] = target: Induced myeloid leukemia cell differentiation protein Mcl-1 (Homo sapiens, UniProt Q07820); assay: MCL1-BIM BH3 interaction inhibitors, dose response, biochemical, fluorescence polarization, BIM-BH3 peptide, 1536-well (AID 2217)
Chain of Induced myeloid leukemia cell differentiation protein Mcl-1 (Q07820 whole entry, the tested form may be a part): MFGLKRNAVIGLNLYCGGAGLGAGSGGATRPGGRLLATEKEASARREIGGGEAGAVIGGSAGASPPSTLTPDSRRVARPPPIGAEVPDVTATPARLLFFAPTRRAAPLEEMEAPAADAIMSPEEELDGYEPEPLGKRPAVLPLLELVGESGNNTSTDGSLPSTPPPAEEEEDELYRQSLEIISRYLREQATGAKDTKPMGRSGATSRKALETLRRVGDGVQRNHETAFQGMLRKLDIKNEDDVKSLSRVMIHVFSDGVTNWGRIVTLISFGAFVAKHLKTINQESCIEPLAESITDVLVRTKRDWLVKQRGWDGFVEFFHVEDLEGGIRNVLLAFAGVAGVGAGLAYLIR

[35] = target: T6, RNA-binding protein pos-1 (Caenorhabditis elegans, UniProt G5EF15); assay: inhibitors of POS-1/mex-3 RNA binding, dose response, biochemical, fluorescence polarization (AID 1964);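 note: purified POS-1 fused to maltose binding protein made in E. coli; potency of compounds blocking POS-1 binding to fluorescent RNA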
T6 sequence (G5EF15 whole entry): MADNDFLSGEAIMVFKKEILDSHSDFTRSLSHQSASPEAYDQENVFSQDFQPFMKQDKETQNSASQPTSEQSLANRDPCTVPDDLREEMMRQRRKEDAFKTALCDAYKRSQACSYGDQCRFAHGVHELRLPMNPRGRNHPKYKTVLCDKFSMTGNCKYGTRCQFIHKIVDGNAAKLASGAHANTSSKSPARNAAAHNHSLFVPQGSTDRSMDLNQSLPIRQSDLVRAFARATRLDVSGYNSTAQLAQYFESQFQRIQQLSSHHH

[36] = target: Bcl-2-like protein 1 (Homo sapiens, UniProt Q07817); assay: BCL-XL inhibitors, dose response, selectivity assay for MCL1 inhibitor project, biochemical, fluorescence polarization, 1536-well (AID 2218)
[37] = target: T7, Estrogen receptor (Homo sapiens, UniProt P03372); assay: ERα–SRC-3 coactivator interaction inhibitors, confirmation, orthogonal assay, biochemical, ELISA, streptavidin-HRP readout (AID 1079)
T7 sequence (P03372 whole entry): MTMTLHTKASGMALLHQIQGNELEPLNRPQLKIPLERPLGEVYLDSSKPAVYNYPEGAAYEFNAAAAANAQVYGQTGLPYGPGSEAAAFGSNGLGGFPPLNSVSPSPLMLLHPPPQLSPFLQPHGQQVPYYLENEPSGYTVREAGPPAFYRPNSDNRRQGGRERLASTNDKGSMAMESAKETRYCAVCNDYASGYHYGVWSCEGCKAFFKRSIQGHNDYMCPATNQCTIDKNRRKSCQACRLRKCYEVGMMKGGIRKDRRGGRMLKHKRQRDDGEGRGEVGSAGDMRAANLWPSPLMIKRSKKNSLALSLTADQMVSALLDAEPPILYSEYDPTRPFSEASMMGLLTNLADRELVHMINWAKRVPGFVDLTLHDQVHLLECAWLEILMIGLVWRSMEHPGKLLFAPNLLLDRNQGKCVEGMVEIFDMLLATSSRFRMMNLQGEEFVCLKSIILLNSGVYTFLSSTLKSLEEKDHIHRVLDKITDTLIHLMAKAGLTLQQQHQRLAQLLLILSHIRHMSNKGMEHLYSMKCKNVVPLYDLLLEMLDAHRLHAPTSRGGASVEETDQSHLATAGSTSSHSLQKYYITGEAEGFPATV

## CC(C)(C)c1ccc(OCC(=O)NNC(=S)NC(=O)c2ccccc2[N+](=O)[O-])c(Br)c1
[1]
  CC50: > 40 µM (active)
[2]
  IC50: 56 µM (active)
[3]
  IC50: > 50 µM (active)

## Cc1ccc(C(=O)c2coc3c2C(=O)C(=O)C(Cl)=C3Cl)cc1
[4]
  EC50: 6.17 µM (active)

## COc1ccccc1CCNCc1ccc(OC)c(OCc2ccccc2)c1
[5]
  AC50: 54.1 µM (active)
[6]
  IC50: 1.97 µM (active)
[7]
  IC50: 9.05 µM (active)
[8]
  AC50: 2.11 µM (active)
[9]
  AC50: > 70 µM (inactive)
[10]
  AC50: > 70 µM (inactive)

## COc1ccc(CC(=O)Nc2cccc(-c3nnc(-c4cccc(C)c4)o3)c2)cc1OC
[11]
  AC50: 8.16 µM (active)
[12]
  AC50: 10.5 µM (active)
[13]
  EC50: 118 µM (active)
[14]
  EC50: 15 µM (active)
[15]
  IC50: 2.35 µM (active)
[16]
  AC50: 47.6 µM (active)
[17]
  IC50: 5.21 µM (active)
[18]
  IC50: 1.76 µM (active)
[19]
  AC50: 2.47 µM (active)
[20]
  EC50: 6.16 µM (active)
[21]
  EC50: 29.5 µM (inactive)

## Cc1ccsc1/C=C1\CCc2ccccc2C1=O
[22]
  EC50: > 50 µM (not active)
[23]
  EC50: 0.89 µM (active)
[24]
  EC50: 2.43 µM (active)
[25]
  EC50: 0.518 µM (active)

## CN(C)c1ccc(/C=C/c2nc(O)c3ccccc3n2)cc1
[26]
  EC50: 4.08 µM (active)
[27]
  IC50: 32.3 µM (not active)
[28]
  EC50: 5.96 µM (active)

## O=C(CNC(=O)/C=C/c1ccco1)N=Nc1c(O)[nH]c2ccccc12
[29]
  EC50: 5.49 µM (active)
[30]
  IC50: > 56.8 µM (not active)
[31]
  IC50: 4.97 µM (active)
[32]
  IC50: 3.25 µM (active)
[33]
  IC50: 25.3 µM (inactive)
[34]
  IC50: 9.7 µM (active)
[35]
  EC50: 13.1 µM (inconclusive)
[36]
  IC50: 37.1 µM (not active)

## COc1cc2[nH]c(=S)n(CCCC(=O)N3CCN(c4cccc(Cl)c4)CC3)c(=O)c2cc1OC
[37]
  IC50: 2.36 µM (not active)

Reference: ChEMBL document CHEMBL1201862, “PubChem BioAssay data set” (2004)
